Experimental data from US20190345150A1, “MICROBIOCIDAL OXADIAZOLE DERIVATIVES” (SYNGENTA PARTICIPATIONS AG, priority 2016, published 2019).

What was measured:
[1] = system: Puccinia recondita f. Sp. Tritici; assay: Puccinia recondita f. sp. tritici / wheat / leaf disc preventative (brown rust); type: in vivo; settings: foliar, 200 ppm in the applied formulation, wheat leaf segments cv. Kanzler, preventative (inoculated 1 day after application), compared to untreated control, read-out: disease control
Method: Leaf disks or leaf segments of various plant species are cut from plants grown in a greenhouse. The cut leaf disks or segments are placed in multiwell plates (24-well format) onto water agar. The leaf disks are sprayed with a test solution before (preventative) or after (curative) inoculation. Compounds to be tested are prepared as DMSO solutions (max. 10 mg/ml) which are diluted to the appropriate concentration with 0.025% Tween20 just before spraying. The inoculated leaf disks or segments are incubated under defined conditions (temperature, relative humidity, light, etc.) according to the respective test system. A single evaluation of disease level is carried out 3 to 14 days after inoculation, depending on the pathosystem. Percent disease control relative to the untreated check leaf disks or segments is then calculated. Wheat leaf segments cv. Kanzler were placed on agar in multiwell plates (24-well format) and sprayed with the formulated test compound diluted in water. The leaf disks were inoculated with a spore suspension of the fungus 1 day after application. The inoculated leaf segments were incubated at 19° C. and 75% relative humidity (rh) under a light regime of 12 hours light/12 hours darkness in a climate cabinet and the activity of a compound was assessed as percent disease control compared to untreated when an appropriate level of disease damage appears in untreated check leaf segments (7 to 9 days after application).

[2] = system: Puccinia recondita f. Sp. Tritici; assay: Puccinia recondita f. sp. tritici / wheat / leaf disc curative (brown rust); type: in vivo; settings: foliar, 24 h, 200 ppm in the applied formulation, wheat leaf segments cv. Kanzler, curative (applied 1 day after inoculation), compared to untreated control, read-out: disease control
Method: Leaf disks or leaf segments of various plant species are cut from plants grown in a greenhouse. The cut leaf disks or segments are placed in multiwell plates (24-well format) onto water agar. The leaf disks are sprayed with a test solution before (preventative) or after (curative) inoculation. Compounds to be tested are prepared as DMSO solutions (max. 10 mg/ml) which are diluted to the appropriate concentration with 0.025% Tween20 just before spraying. The inoculated leaf disks or segments are incubated under defined conditions (temperature, relative humidity, light, etc.) according to the respective test system. A single evaluation of disease level is carried out 3 to 14 days after inoculation, depending on the pathosystem. Percent disease control relative to the untreated check leaf disks or segments is then calculated. Wheat leaf segments cv. Kanzler are placed on agar in multiwell plates (24-well format). The leaf segments are then inoculated with a spore suspension of the fungus. Plates were stored in darkness at 19° C. and 75% relative humidity. The formulated test compound diluted in water was applied 1 day after inoculation. The leaf segments were incubated at 19° C. and 75% relative humidity under a light regime of 12 hours light/12 hours darkness in a climate cabinet and the activity of a compound was assessed as percent disease control compared to untreated when an appropriate level of disease damage appears in untreated check leaf segments (6 to 8 days after application).

Phakopsora pachyrhizi = Phakopsora pachyrhizi / soybean / leaf disc preventative (Asian soybean rust); type: in vivo; settings: foliar, 200 ppm in the applied formulation, soybean leaf disks, preventative (inoculated 1 day after application), compared to untreated control, read-out: disease control
Method: Leaf disks or leaf segments of various plant species are cut from plants grown in a greenhouse. The cut leaf disks or segments are placed in multiwell plates (24-well format) onto water agar. The leaf disks are sprayed with a test solution before (preventative) or after (curative) inoculation. Compounds to be tested are prepared as DMSO solutions (max. 10 mg/ml) which are diluted to the appropriate concentration with 0.025% Tween20 just before spraying. The inoculated leaf disks or segments are incubated under defined conditions (temperature, relative humidity, light, etc.) according to the respective test system. A single evaluation of disease level is carried out 3 to 14 days after inoculation, depending on the pathosystem. Percent disease control relative to the untreated check leaf disks or segments is then calculated. Soybean leaf disks are placed on water agar in multiwell plates (24-well format) and sprayed with the formulated test compound diluted in water. One day after application leaf discs are inoculated by spraying a spore suspension on the lower leaf surface. After an incubation period in a climate cabinet of 24-36 hours in darkness at 20° C. and 75% rh leaf disc are kept at 20° C. with 12 h light/day and 75% rh. The activity of a compound is assessed as percent disease control compared to untreated when an appropriate level of disease damage appears in untreated check leaf disks (12 to 14 days after application).

[3] = system: Glomerella laqenarium (Colletotrichum laqenarium); assay: Glomerella lagenarium liquid culture / cucumber / preventative (anthracnose); type: cell-based; settings: 20 ppm in the applied formulation, liquid culture in PDB, growth inhibition measured photometrically 3 to 4 days after application, compared to untreated control, read-out: disease control
Method: Mycelia fragments or conidia suspensions of a fungus prepared either freshly from liquid cultures of the fungus or from cryogenic storage, are directly mixed into nutrient broth. DMSO solutions of the test compound (max. 10 mg/ml) are diluted with 0.025% Tween20 by a factor of 50 and 10 μl of this solution is pipetted into a microtiter plate (96-well format). The nutrient broth containing the fungal spores/mycelia fragments is then added to give an end concentration of the tested compound. The test plates are incubated in the dark at 24° C. and 96% relative humidity. The inhibition of fungal growth is determined photometrically after 2 to 7 days, depending on the pathosystem, and percent antifungal activity relative to the untreated check is calculated. Conidia of the fungus from cryogenic storage are directly mixed into nutrient broth (PDB—potato dextrose broth). After placing a (DMSO) solution of test compound into a microtiter plate (96-well format), the nutrient broth containing the fungal spores is added. The test plates are incubated at 24° C. and the inhibition of growth is measured photometrically 3 to 4 days after application.

Compound: CN(C)C(=O)OCc1ccc(-c2noc(C(F)(F)F)n2)cc1 [Compound 3.1, [4-[5-(trifluoromethyl)-1,2,4-oxadiazol-3-yl]phenyl]methyl N,N-dimethylcarbamate]
- pest or weed control at 200 ppm [1]: ≥ 80%
- pest or weed control at 200 ppm [2]: ≥ 80%
- pest or weed control at 200 ppm (Phakopsora pachyrhizi): ≥ 80%
- inhibition of growth at 20 ppm [3]: ≥ 80%
- melting point: 95 to 97 °C
